The values below come from patent EP1986011A2, “Peptide epitopes recognized by disease promoting CD4+ T lymphocytes” (MGI PHARMA Biologics, Inc., priority 1999, dated 2008).

Test [1] deals with isolated HLA-DR4 molecules. As to the kind of experiment: Binding inhibition assay: inhibition of binding of biotinylated invariant chain indicator peptide. The settings on record: HLA-DR4 10 µg/ml, indicator peptide 1 µM, varying concentrations of test peptide, overnight at room temperature (Fig. 3). Also on record: species or system human. On the procedure:
Synthetic peptides with amino acid sequences based on the 6 core regions identified by the IMF were tested for their ability to bind to isolated HLA-DR4 molecules in a binding inhibition assay performed essentially as previously described [Chicz et al. (1997), J. Immunol. 159: 4935-4942]. In brief, aliquots of immunopurified preparation of HLA-DR4 (final concentration of 10 µg/ml) were incubated with a biotinylated HLA-DR4 binding peptide (consisting of residues 98-117 of class II MHC invariant chain) ("the indicator peptide") (1 µM) and varying concentrations of the test peptides in 0.2 ml tubes. After an overnight incubation at room temperature, the contents of each tube were transferred to a well of a 96-well plastic microtiter plate precoated with anti-HLA-DR4 antibody. The microtiter plates were rocked for 60 min at room temperature and unbound material was removed by rigorous washing. The relative amount of bound standard peptide in each well was determined by measuring color development after addition of streptavidin-conjugated alkaline phosphatase, washing, and adding a chromogenic alkaline phosphatase substrate.
In order to test for the ability of the 6 consensus peptides representing the 6 core regions defined by the IMF described in Example 1, a binding inhibition assay was performed (Fig. 3). […]

The next test deals with peripheral blood T cells. Briefly: T cell proliferation assay (Epitope Verification) with synthetic IA-2 peptides. The note with it: HLA-DR4 IDDM patient DC (I), DRB1 genotype 0403.0405; peptide 10 µg/ml, 5 days; significant = SI >2.0 and >40% wells positive. Format: cell-based, human. Also noted: key: significant ("POS" in Table 2) proliferative responses. On the procedure:
To establish that peptide epitopes identified are relevant to IDDM (i.e., that they are recognized by CD4+ T cells of patients with IDDM or pre-IDDM expressing the DR4 molecule but not by non-diabetic controls also expressing the DR4 molecule), T cell proliferation assays were carried out using synthetic peptides having amino acid sequences based upon the peptides identified by mass spectrometry to be derived from IA-2ic. Peptides were synthesized using Fmoc chemistry with an Applied Biosystems SYNERGY peptide synthesizer and purified by preparative RP-HPLC on a Waters 2690 Alliance system equipped with a Radial Compression Module. […] Peripheral blood mononuclear cells from recent onset IDDM patients (<6 months from diagnosis) and healthy controls expressing the appropriate HLA DR4 molecules were separated by density gradient centrifugation and co-cultured in wells of 96-well U-bottom plates with peptides at a concentration of 10 µg/ml for 5 days in 150 µl RPMI 1640/10% pooled normal AB serum, followed by pulsing with 0.5 µCi [^3H]-thymidine/well and harvesting onto filters for radioactivity counting measured in counts per minute (cpm). […] Results were expressed as a stimulation index (SI) which is the ratio of the cpm obtained from cultures containing peptide to the cpm obtained from cultures without peptide (mean cpm of 12 wells in each case). […]

Regarding “Ii-c: a peptide consisting of residues 98-117 of class II MHC invariant chain (PKPPKPVSKMRMATPLLMQA) [reference compound]”, the “binding to HLA-DR4 molecules” value in test [1] was “bind with intermediate avidity”.
In the case of “LAKEWQALCAYQAEPNTCATAQGE [709-732, peptide consisting of residues 709-732 of IA-2]”, in test [1], the “binding to HLA-DR4 molecules” value is “bind strongly”. Besides, the “T cell response to IA-2 peptide” value with peripheral blood T cells is “POS”.
